A word on the IC50: it is the concentration that gives 50% inhibition. For orientation: viability, T/C means the ratio of treated to control.

Data on four molecules can be found in PubChem BioAssay AID2060494 (Molecular Pharmacology Branch, DTP, NCI, 2025).

Structures are written as SMILES.
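Further: spheroids exposed to the agents for seven days before readout.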
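Wherever viability, T/C is given: percent of vehicle control viability with DMSO wells as 100%.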

The test system of one experiment is 435261-313-R-J1-PDC complex spheroid viability. Briefly: Anticancer human tumor 435261-313-R-J1-PDC patient-derived colon adenocarcinoma cell line growth inhibition [GQUAD]. The conditions noted are these: curve of first compound; second compound 0.0316 µM. Put shortly:
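Tumor cells were grown as complex spheroids with HUVEC endothelial cells and mesenchymal stem cells as stroma. G-quadruplex stabilizers were combined with targeted agents over half-log dilutions from near the clinical Cmax, or from 10 microM.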
With `COc1cc(C2c3cc4c(cc3C(OC3OC5COC(C)OC5C(O)C3O)C3COC(=O)C23)OCO4)cc(OC)c1O` (configuration not stated) + CN(C)c1ccc(Nc2c3ccc(NC(=O)CCN4CCCC4)cc3nc3cc(NC(=O)CCN4CCCC4)ccc23)cc1, the IC50 is above 10 µM.
Still for that read-out and setting: under `COc1cccc2c1C(=O)c1c(O)c3c(c(O)c1C2=O)CC(O)(C(=O)CO)CC3OC1CC(N)C(O)C(C)O1` (configuration not stated) + CN(C)c1ccc(Nc2c3ccc(NC(=O)CCN4CCCC4)cc3nc3cc(NC(=O)CCN4CCCC4)ccc23)cc1 stands 0.491 µM.
Regarding `Nc1ccn(C2OC(CO)C(O)C2(F)F)c(=O)n1` (configuration not stated) + CN(C)c1ccc(Nc2c3ccc(NC(=O)CCN4CCCC4)cc3nc3cc(NC(=O)CCN4CCCC4)ccc23)cc1, the IC50 is above 10 µM.
For the molecule `O=c1[nH]cc(F)c(=O)[nH]1` + CN(C)c1ccc(Nc2c3ccc(NC(=O)CCN4CCCC4)cc3nc3cc(NC(=O)CCN4CCCC4)ccc23)cc1, the IC50 is above 10 µM.

Still in this experiment, the particulars now being: curve of first compound; second compound 0.1 µM.
As to `COc1cc(C2c3cc4c(cc3C(OC3OC5COC(C)OC5C(O)C3O)C3COC(=O)C23)OCO4)cc(OC)c1O` (configuration not stated) + CN(C)c1ccc(Nc2c3ccc(NC(=O)CCN4CCCC4)cc3nc3cc(NC(=O)CCN4CCCC4)ccc23)cc1, the IC50 was above 10 µM.
Take `COc1cccc2c1C(=O)c1c(O)c3c(c(O)c1C2=O)CC(O)(C(=O)CO)CC3OC1CC(N)C(O)C(C)O1` (configuration not stated) + CN(C)c1ccc(Nc2c3ccc(NC(=O)CCN4CCCC4)cc3nc3cc(NC(=O)CCN4CCCC4)ccc23)cc1: the IC50 stood at 0.644 µM.
Consider `Nc1ccn(C2OC(CO)C(O)C2(F)F)c(=O)n1` (configuration not stated) + CN(C)c1ccc(Nc2c3ccc(NC(=O)CCN4CCCC4)cc3nc3cc(NC(=O)CCN4CCCC4)ccc23)cc1, for which the IC50 is above 10 µM.
Consider `O=c1[nH]cc(F)c(=O)[nH]1` + CN(C)c1ccc(Nc2c3ccc(NC(=O)CCN4CCCC4)cc3nc3cc(NC(=O)CCN4CCCC4)ccc23)cc1, for which the IC50 is above 10 µM.

The experiment is the same for the next values; noted with them: curve of first compound; second compound 0.316 µM.
Regarding `COc1cc(C2c3cc4c(cc3C(OC3OC5COC(C)OC5C(O)C3O)C3COC(=O)C23)OCO4)cc(OC)c1O` (configuration not stated) + CN(C)c1ccc(Nc2c3ccc(NC(=O)CCN4CCCC4)cc3nc3cc(NC(=O)CCN4CCCC4)ccc23)cc1, the IC50 was above 10 µM.
Regarding `COc1cccc2c1C(=O)c1c(O)c3c(c(O)c1C2=O)CC(O)(C(=O)CO)CC3OC1CC(N)C(O)C(C)O1` (configuration not stated) + CN(C)c1ccc(Nc2c3ccc(NC(=O)CCN4CCCC4)cc3nc3cc(NC(=O)CCN4CCCC4)ccc23)cc1, the IC50 amounted to 0.582 µM.
Take `Nc1ccn(C2OC(CO)C(O)C2(F)F)c(=O)n1` (configuration not stated) + CN(C)c1ccc(Nc2c3ccc(NC(=O)CCN4CCCC4)cc3nc3cc(NC(=O)CCN4CCCC4)ccc23)cc1: the IC50 is above 10 µM.
On the same count and under the same terms, under `O=c1[nH]cc(F)c(=O)[nH]1` + CN(C)c1ccc(Nc2c3ccc(NC(=O)CCN4CCCC4)cc3nc3cc(NC(=O)CCN4CCCC4)ccc23)cc1 stands above 10 µM.

Still in this experiment, the particulars now being: curve of first compound; second compound 1 µM.
Consider `COc1cc(C2c3cc4c(cc3C(OC3OC5COC(C)OC5C(O)C3O)C3COC(=O)C23)OCO4)cc(OC)c1O` (configuration not stated) + CN(C)c1ccc(Nc2c3ccc(NC(=O)CCN4CCCC4)cc3nc3cc(NC(=O)CCN4CCCC4)ccc23)cc1, for which the IC50 is above 10 µM.
Consider `COc1cccc2c1C(=O)c1c(O)c3c(c(O)c1C2=O)CC(O)(C(=O)CO)CC3OC1CC(N)C(O)C(C)O1` (configuration not stated) + CN(C)c1ccc(Nc2c3ccc(NC(=O)CCN4CCCC4)cc3nc3cc(NC(=O)CCN4CCCC4)ccc23)cc1, for which the IC50 was found to be 0.439 µM.
For the molecule `Nc1ccn(C2OC(CO)C(O)C2(F)F)c(=O)n1` (configuration not stated) + CN(C)c1ccc(Nc2c3ccc(NC(=O)CCN4CCCC4)cc3nc3cc(NC(=O)CCN4CCCC4)ccc23)cc1, the IC50 was above 10 µM.
For `O=c1[nH]cc(F)c(=O)[nH]1` + CN(C)c1ccc(Nc2c3ccc(NC(=O)CCN4CCCC4)cc3nc3cc(NC(=O)CCN4CCCC4)ccc23)cc1, the IC50 was above 10 µM.

Staying with this experiment, now noted: curve of first compound; second compound 3.16 µM.
Regarding `COc1cc(C2c3cc4c(cc3C(OC3OC5COC(C)OC5C(O)C3O)C3COC(=O)C23)OCO4)cc(OC)c1O` (configuration not stated) + CN(C)c1ccc(Nc2c3ccc(NC(=O)CCN4CCCC4)cc3nc3cc(NC(=O)CCN4CCCC4)ccc23)cc1, the IC50 is above 10 µM.
As for `COc1cccc2c1C(=O)c1c(O)c3c(c(O)c1C2=O)CC(O)(C(=O)CO)CC3OC1CC(N)C(O)C(C)O1` (configuration not stated) + CN(C)c1ccc(Nc2c3ccc(NC(=O)CCN4CCCC4)cc3nc3cc(NC(=O)CCN4CCCC4)ccc23)cc1, the IC50 is 0.152 µM.
`Nc1ccn(C2OC(CO)C(O)C2(F)F)c(=O)n1` (configuration not stated) + CN(C)c1ccc(Nc2c3ccc(NC(=O)CCN4CCCC4)cc3nc3cc(NC(=O)CCN4CCCC4)ccc23)cc1: the IC50 worked out at 2.84 µM.
As to `O=c1[nH]cc(F)c(=O)[nH]1` + CN(C)c1ccc(Nc2c3ccc(NC(=O)CCN4CCCC4)cc3nc3cc(NC(=O)CCN4CCCC4)ccc23)cc1, the IC50 is above 10 µM.

Staying with this experiment, now noted: curve of first compound; second compound 10 µM.
For the molecule `COc1cc(C2c3cc4c(cc3C(OC3OC5COC(C)OC5C(O)C3O)C3COC(=O)C23)OCO4)cc(OC)c1O` (configuration not stated) + CN(C)c1ccc(Nc2c3ccc(NC(=O)CCN4CCCC4)cc3nc3cc(NC(=O)CCN4CCCC4)ccc23)cc1, the half-maximal inhibitory concentration (IC50) was 0.0704 µM.
On to `COc1cccc2c1C(=O)c1c(O)c3c(c(O)c1C2=O)CC(O)(C(=O)CO)CC3OC1CC(N)C(O)C(C)O1` (configuration not stated) + CN(C)c1ccc(Nc2c3ccc(NC(=O)CCN4CCCC4)cc3nc3cc(NC(=O)CCN4CCCC4)ccc23)cc1, for which the IC50 was below 0.0316 µM.
With `Nc1ccn(C2OC(CO)C(O)C2(F)F)c(=O)n1` (configuration not stated) + CN(C)c1ccc(Nc2c3ccc(NC(=O)CCN4CCCC4)cc3nc3cc(NC(=O)CCN4CCCC4)ccc23)cc1, the IC50 is below 0.0316 µM.
As for `O=c1[nH]cc(F)c(=O)[nH]1` + CN(C)c1ccc(Nc2c3ccc(NC(=O)CCN4CCCC4)cc3nc3cc(NC(=O)CCN4CCCC4)ccc23)cc1, the IC50 is below 0.0316 µM.

Still in this experiment, the particulars now being: second compound 0.0316 µM; first compound 0.0316 µM; stronger effect = lower value.
Turning to `COc1cc(C2c3cc4c(cc3C(OC3OC5COC(C)OC5C(O)C3O)C3COC(=O)C23)OCO4)cc(OC)c1O` (configuration not stated) + CN(C)c1ccc(Nc2c3ccc(NC(=O)CCN4CCCC4)cc3nc3cc(NC(=O)CCN4CCCC4)ccc23)cc1, the viability, T/C is 93.5%.
`COc1cccc2c1C(=O)c1c(O)c3c(c(O)c1C2=O)CC(O)(C(=O)CO)CC3OC1CC(N)C(O)C(C)O1` (configuration not stated) + CN(C)c1ccc(Nc2c3ccc(NC(=O)CCN4CCCC4)cc3nc3cc(NC(=O)CCN4CCCC4)ccc23)cc1: the viability, T/C was 83.2%.
Consider `Nc1ccn(C2OC(CO)C(O)C2(F)F)c(=O)n1` (configuration not stated) + CN(C)c1ccc(Nc2c3ccc(NC(=O)CCN4CCCC4)cc3nc3cc(NC(=O)CCN4CCCC4)ccc23)cc1, for which the viability, T/C is 90.2%.
Regarding `O=c1[nH]cc(F)c(=O)[nH]1` + CN(C)c1ccc(Nc2c3ccc(NC(=O)CCN4CCCC4)cc3nc3cc(NC(=O)CCN4CCCC4)ccc23)cc1, the viability, T/C was 118%.

Still in this experiment, the particulars now being: second compound 0.0316 µM; first compound 0.1 µM; stronger effect = lower value.
Take `COc1cc(C2c3cc4c(cc3C(OC3OC5COC(C)OC5C(O)C3O)C3COC(=O)C23)OCO4)cc(OC)c1O` (configuration not stated) + CN(C)c1ccc(Nc2c3ccc(NC(=O)CCN4CCCC4)cc3nc3cc(NC(=O)CCN4CCCC4)ccc23)cc1: the viability, T/C is 117%.
For the molecule `COc1cccc2c1C(=O)c1c(O)c3c(c(O)c1C2=O)CC(O)(C(=O)CO)CC3OC1CC(N)C(O)C(C)O1` (configuration not stated) + CN(C)c1ccc(Nc2c3ccc(NC(=O)CCN4CCCC4)cc3nc3cc(NC(=O)CCN4CCCC4)ccc23)cc1, the viability, T/C was 71.2%.
Regarding `Nc1ccn(C2OC(CO)C(O)C2(F)F)c(=O)n1` (configuration not stated) + CN(C)c1ccc(Nc2c3ccc(NC(=O)CCN4CCCC4)cc3nc3cc(NC(=O)CCN4CCCC4)ccc23)cc1, the viability, T/C was 78.8%.
As to `O=c1[nH]cc(F)c(=O)[nH]1` + CN(C)c1ccc(Nc2c3ccc(NC(=O)CCN4CCCC4)cc3nc3cc(NC(=O)CCN4CCCC4)ccc23)cc1, the viability, T/C was 102%.

The experiment is the same for the next values; noted with them: second compound 0.0316 µM; first compound 0.316 µM; stronger effect = lower value.
On to `COc1cc(C2c3cc4c(cc3C(OC3OC5COC(C)OC5C(O)C3O)C3COC(=O)C23)OCO4)cc(OC)c1O` (configuration not stated) + CN(C)c1ccc(Nc2c3ccc(NC(=O)CCN4CCCC4)cc3nc3cc(NC(=O)CCN4CCCC4)ccc23)cc1, for which the viability, T/C is 77.8%.
As to `COc1cccc2c1C(=O)c1c(O)c3c(c(O)c1C2=O)CC(O)(C(=O)CO)CC3OC1CC(N)C(O)C(C)O1` (configuration not stated) + CN(C)c1ccc(Nc2c3ccc(NC(=O)CCN4CCCC4)cc3nc3cc(NC(=O)CCN4CCCC4)ccc23)cc1, the viability, T/C was 65.4%.
On the same count and under the same terms, under `Nc1ccn(C2OC(CO)C(O)C2(F)F)c(=O)n1` (configuration not stated) + CN(C)c1ccc(Nc2c3ccc(NC(=O)CCN4CCCC4)cc3nc3cc(NC(=O)CCN4CCCC4)ccc23)cc1 stands 90%; under `O=c1[nH]cc(F)c(=O)[nH]1` + CN(C)c1ccc(Nc2c3ccc(NC(=O)CCN4CCCC4)cc3nc3cc(NC(=O)CCN4CCCC4)ccc23)cc1, 105%.

The same experiment, now with this note: second compound 0.0316 µM; first compound 1 µM; stronger effect = lower value.
Regarding `COc1cc(C2c3cc4c(cc3C(OC3OC5COC(C)OC5C(O)C3O)C3COC(=O)C23)OCO4)cc(OC)c1O` (configuration not stated) + CN(C)c1ccc(Nc2c3ccc(NC(=O)CCN4CCCC4)cc3nc3cc(NC(=O)CCN4CCCC4)ccc23)cc1, the viability, T/C was 74.4%.
For `COc1cccc2c1C(=O)c1c(O)c3c(c(O)c1C2=O)CC(O)(C(=O)CO)CC3OC1CC(N)C(O)C(C)O1` (configuration not stated) + CN(C)c1ccc(Nc2c3ccc(NC(=O)CCN4CCCC4)cc3nc3cc(NC(=O)CCN4CCCC4)ccc23)cc1, the viability, T/C was 26.9%.
In the case of `Nc1ccn(C2OC(CO)C(O)C2(F)F)c(=O)n1` (configuration not stated) + CN(C)c1ccc(Nc2c3ccc(NC(=O)CCN4CCCC4)cc3nc3cc(NC(=O)CCN4CCCC4)ccc23)cc1, the viability, T/C is 83%.
The same measure, in the same setting: under `O=c1[nH]cc(F)c(=O)[nH]1` + CN(C)c1ccc(Nc2c3ccc(NC(=O)CCN4CCCC4)cc3nc3cc(NC(=O)CCN4CCCC4)ccc23)cc1 stands 90.8%.

The experiment is the same for the next values; noted with them: second compound 0.0316 µM; first compound 3.16 µM; stronger effect = lower value.
In the case of `COc1cc(C2c3cc4c(cc3C(OC3OC5COC(C)OC5C(O)C3O)C3COC(=O)C23)OCO4)cc(OC)c1O` (configuration not stated) + CN(C)c1ccc(Nc2c3ccc(NC(=O)CCN4CCCC4)cc3nc3cc(NC(=O)CCN4CCCC4)ccc23)cc1, the viability, T/C was 75.9%.
Consider `COc1cccc2c1C(=O)c1c(O)c3c(c(O)c1C2=O)CC(O)(C(=O)CO)CC3OC1CC(N)C(O)C(C)O1` (configuration not stated) + CN(C)c1ccc(Nc2c3ccc(NC(=O)CCN4CCCC4)cc3nc3cc(NC(=O)CCN4CCCC4)ccc23)cc1, for which the viability, T/C is 2.29%.
